Common to all, as to type: cell-based
In one assay the target is vanilloid receptor (VR1) (Homo sapiens (Human), UniProt Q8NER1). Put plainly: FLIPR Ca2+ influx assay on CHO-K1 cells transfected with the human VR1 gene, capsaicin stimulus (Pharmacological Method II). As for the experimental part: Furthermore, preference may be given to compounds of the invention of the general formulas I, Ia, Ib and Ic, which in the FLIPR assay using CHO—K1 cells, which have been transfected with the human VR1 gene in a concentration below 2000 nM, preferably below 1000 nM, more preferably below 300 nM, even more preferably below 100 nM, still more preferably below 75 nM, very preferably below 50 nM and most preferably below 10 nM, cause a 50 percent displacement of capsaicin present in a concentration of 100 nM. In the FLIPR assay, the Ca^2+ influx is quantified with the aid of a Ca^2+-sensitive dye (type Fluo-4, Molecular Probes Europe BV, Leiden, Netherlands) in a fluorescent imaging plate reader (FLIPR, Molecular Devices, Sunnyvale, USA), as described below.
Sequence of vanilloid receptor (VR1) (Q8NER1 whole entry): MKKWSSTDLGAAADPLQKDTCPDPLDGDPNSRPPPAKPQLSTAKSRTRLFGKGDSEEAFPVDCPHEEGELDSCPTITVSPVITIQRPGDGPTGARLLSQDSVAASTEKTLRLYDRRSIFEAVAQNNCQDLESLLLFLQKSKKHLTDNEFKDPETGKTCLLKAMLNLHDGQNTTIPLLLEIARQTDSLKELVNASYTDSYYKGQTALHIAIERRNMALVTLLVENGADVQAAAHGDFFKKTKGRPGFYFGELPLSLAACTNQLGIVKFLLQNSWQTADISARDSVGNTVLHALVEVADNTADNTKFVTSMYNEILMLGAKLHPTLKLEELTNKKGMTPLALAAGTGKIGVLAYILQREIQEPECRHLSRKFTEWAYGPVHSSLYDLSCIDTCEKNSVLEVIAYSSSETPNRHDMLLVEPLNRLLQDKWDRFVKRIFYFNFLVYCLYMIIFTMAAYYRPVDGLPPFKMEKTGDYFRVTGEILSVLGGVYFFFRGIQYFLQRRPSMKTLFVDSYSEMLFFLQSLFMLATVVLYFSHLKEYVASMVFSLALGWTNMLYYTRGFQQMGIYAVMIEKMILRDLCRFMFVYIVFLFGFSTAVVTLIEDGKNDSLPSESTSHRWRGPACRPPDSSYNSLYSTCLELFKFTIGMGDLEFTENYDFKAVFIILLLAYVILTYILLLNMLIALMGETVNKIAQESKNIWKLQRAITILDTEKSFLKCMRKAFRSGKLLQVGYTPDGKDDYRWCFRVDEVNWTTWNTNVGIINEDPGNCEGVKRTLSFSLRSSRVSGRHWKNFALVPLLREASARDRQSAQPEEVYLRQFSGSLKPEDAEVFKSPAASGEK
II. Functional Investigations on the Vanilloid Receptor (VR1)
The agonistic or antagonistic action of the substances to be examined on the vanilloid receptor (VR1) can alternatively be determined by the following assay. According to this assay the Ca^2+ influx through the canal is quantified with the aid of a Ca^2+-sensitive dye (type Fluo-4, Molecular Probes, Europe BV, Leiden, Netherlands) in a fluorescent imaging plate reader (FLIPR, Molecular Devices, Sunnyvale, USA).
Chinese hamster ovary cells (CHO—K1 cells, European Collection of Cell Cultures (ECACC) UK) are stably transfected with the VR1 gene. For carrying out functional investigations, these cells are plated on poly-D-lysine-coated, black 96-well plates with a clear bottom (BD Biosciences, Heidelberg, Germany) in a density of 25,000 cells/well. The cells are incubated overnight at 37° C. and 5% CO2 in a culture medium (Nutrient Mixture ‘am’s F12, 10% by volume of FCS (fetal calf serum), 18 μg/mL of L-proline). On the following day the cells are incubated with Fluo-4 (Fluo-4 2 μM, Pluronic F127 0.01 by volume, Molecular Probes in HBSS (Hank's buffered saline solution), Gibco Invitrogen GmbH, Karlsruhe, Germany) for 30 minutes at 37° C. The plates are then washed 3 times with HBSS buffer and, after another incubation over a period of 15 minutes at RT, are used in the FLIPR for Ca^2+ measurement. The Ca^2+-dependent fluorescence is measured prior to and following the addition of the substances being examined (wavelength λex=488 nm, λem=540 nm). Quantification is carried out by measuring the highest fluorescence intensity (PC, fluorescence counts) over time.
The FLIPR protocol consists of two substance additions. First of all, the substances to be tested (10 μM) are pipeted onto the cells and the Ca^2+ influx is compared with the control (capsaicin 10 μM) (percentage activation based on the Ca^2+ signal following addition of 10 μM of capsaicin). Following incubation over a period of 5 minutes 100 nM of capsaicin are applied and the influx of Ca^2+ is likewise determined.
Desensitizing agonists and antagonists lead to a suppression of the Ca^2+ influx. The percentage inhibition compared with the maximum inhibition achieved with 10 μM of capsaicin is calculated.
Based on the percentage displacement effected by different concentrations of the compounds of the general formula Ito be tested, IC50 inhibition concentrations that cause 50 percent displacement of capsaicin are calculated. Conversion using the Cheng Prusoff equation gave Ki values for the test substances (Cheng, Prusoff; Bioch. Pharmacol. 22, 3099-3108, 1973).
The affinity of the compounds of the invention for the vanilloid receptor 1 (VR1/TRPV1-Receptor) was detected as described above (Pharmacological Methods I and II respectively).

In assay [1] the target is vanilloid receptor 1 (VR1/TRPV1) (Rattus norvegicus (Rat), UniProt O35433). Briefly: FLIPR Ca2+ influx assay on rat dorsal root ganglia cells, capsaicin stimulus (Pharmacological Method I). The source says: I. Functional Investigation on the Vanilloid Receptor 1 (VR1/TRPV1 Receptor)
Sequence of vanilloid receptor 1 (VR1/TRPV1) (O35433 whole entry): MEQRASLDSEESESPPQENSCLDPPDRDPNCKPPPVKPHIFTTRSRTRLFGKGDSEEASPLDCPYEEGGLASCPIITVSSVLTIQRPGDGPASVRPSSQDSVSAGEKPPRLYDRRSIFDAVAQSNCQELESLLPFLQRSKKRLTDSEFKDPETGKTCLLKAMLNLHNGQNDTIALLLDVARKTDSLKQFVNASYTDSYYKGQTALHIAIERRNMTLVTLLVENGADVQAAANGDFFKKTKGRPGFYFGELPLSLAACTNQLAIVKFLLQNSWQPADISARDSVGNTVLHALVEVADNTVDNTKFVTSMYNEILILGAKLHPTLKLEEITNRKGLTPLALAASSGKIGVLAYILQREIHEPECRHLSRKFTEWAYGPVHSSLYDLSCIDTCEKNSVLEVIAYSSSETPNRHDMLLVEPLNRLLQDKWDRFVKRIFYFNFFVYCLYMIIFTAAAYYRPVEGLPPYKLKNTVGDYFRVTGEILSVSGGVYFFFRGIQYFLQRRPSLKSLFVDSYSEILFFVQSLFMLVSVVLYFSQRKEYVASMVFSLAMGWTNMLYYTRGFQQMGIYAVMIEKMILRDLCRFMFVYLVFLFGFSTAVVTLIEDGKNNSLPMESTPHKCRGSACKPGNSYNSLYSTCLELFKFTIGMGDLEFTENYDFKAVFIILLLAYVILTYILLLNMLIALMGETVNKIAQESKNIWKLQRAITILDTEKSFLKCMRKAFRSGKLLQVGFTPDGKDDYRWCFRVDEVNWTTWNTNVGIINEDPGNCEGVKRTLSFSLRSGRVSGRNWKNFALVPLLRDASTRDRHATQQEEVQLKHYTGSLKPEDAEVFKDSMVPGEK
The agonistic or antagonistic action of the substances to be investigated on the vanilloid receptor 1 (VR1/TRPV1) of the species rat can be determined using the following assay. According to this assay, the Ca^2+ influx through the receptor channel is quantified with the aid of a Ca^2+-sensitive dye (Type Fluo-4, Molecular Probes Europe BV, Leiden Netherlands) in a fluorescent imaging plate reader (FLIPR, Molecular Devices, Sunnyvale, USA).
Complete medium: 50 mL of HAMS F12 Nutrient Mixture (Gibco Invitrogen GmbH, Karlsruhe, Germany) with
10% by volume of FCS (fetal calf serum, Gibco Invitrogen GmbH, Karlsruhe, Germany, heat-inactivated);
2 mM of L-glutamine (Sigma, Munich, Germany);
1% by weight of AA solution (antibiotics/antimycotics solution, PAA, Pasching, Austria)
and 25 ng/mL of Medium NGF (2.5 S, Gibco Invitrogen GmbH, Karlsruhe, Germany) Cell culture plate: Poly-D-lysine-coated, black 96-well plates with a clear bottom (96-well black/clear plate, BD Biosciences, Heidelberg, Germany) are additionally coated with laminin (Gibco Invitrogen GmbH, Karlsruhe, Germany) by diluting laminin to a concentration of 100 μg/mL with PBS (Ca—Mg-free PBS, Gibco Invitrogen GmbH, Karlsruhe, Germany). Aliquots having a concentration of 100 μg/mL of laminin are taken and stored at −20° C. The aliquots are diluted with PBS in the ratio 1:10 to 10 μg/mL of laminin and in each case 50 μL of the solution is pipeted into a well of the cell culture plate. The cell culture plates are incubated at 37° C. for at least two hours, the supernatant solution is aspirated and the wells are in each case washed twice with PBS. The coated cell culture plates are stored with supernatant PBS and this is removed only directly before the addition of the cells.
Preparation of the Cells:
The vertebral column is removed from decapitated rats and this is laid directly in a cold, i.e. ice bath-surrounded, HBSS buffer (Hank's buffered saline solution, Gibco Invitrogen GmbH, Karlsruhe, Germany) and 1% by volume of an AA solution (antibiotics/antimycotics solution, PAA, Pasching, Austria) is added. The vertebral column is cut in two, longitudinally, and the vertebral canal is removed together with fascias. Subsequently, the dorsal root ganglia (DRGs) are removed and in turn stored in cold HBSS buffer to which 1% by volume of an AA solution has been added. The DRGs completely freed from blood residues and spinal nerves are in each case transferred to 500 μL of cold collagenase Type 2 (PAA, Pasching, Austria) and incubated at 37° C. for 35 minutes. After the addition of 2.5% by volume of trypsin (PAA, Pasching, Austria), the preparation is incubated at 37° C. for a further 10 minutes. On completion of incubation, the enzyme solution is carefully pipeted off and 500 μL of complete medium are added to the DRGs in each case. The DRGs are in each case repeatedly suspended, drawn through No. 1, No. 12, and No. 16 needles by means of a syringe and transferred to 50 mL Falcon tubes and these are filled to 15 mL with complete medium. The contents of each Falcon tube are in each case filtered through a 70 μm Falcon filter insert and centrifuged at 1200 rpm and RT for 10 minutes. The resulting pellet is in each case taken up in 250 μL of complete medium and the cell count is determined.
The number of cells in the suspension is adjusted to 3×10^5 per mL and in each case 150 μL of this suspension are added to a well of the cell culture plates coated as described above. The plates are allowed to stand at 37° C., 5% by volume of CO2 and 95% relative humidity for two to three days in an incubator. […]

A further assay deals with VR1/TRPV1 receptor (Homo sapiens (Human), UniProt Q8NER1). Briefly: Inhibition of human VR1/TRPV1 following pH-stimulus. The settings on record: for IC50 (Human) following pH-stimulus: ne = no effect, no reaction observed.
Sequence of VR1/TRPV1 receptor (Q8NER1 whole entry): as the sequence (Q8NER1 whole entry) above

Molecules are shown by their SMILES.

Usually Ki stands for the equilibrium dissociation constant of an inhibitor or competing ligand from its target. A higher Ki goes with a looser hold on the target. Usually inhibition stands for the percentage by which the read-out fell short of the control.

Regarding `CC1CCN(c2nc(C(F)(F)F)ccc2CNC(=O)Cc2cc(F)ccc2F)CC1` [Example 7, 2-(2,5-Difluorophenyl)-N-(4-methyl-6′-trifluoromethyl-3,4,5,6-tetrahydro-2H-[1,2′]bipyridinyl-3′-ylmethyl)acetamide], the Ki on vanilloid receptor (VR1) is 30 nM; in assay [1], 63 nM. Also, the “IC50 (Human) following pH-stimulus” value at VR1/TRPV1 receptor is on record as “ne”.
Taken in the same sequence, the figures for `CC1CCN(c2nc(C(F)(F)F)ccc2CNC(=O)C(C)c2cc(F)c(N)c(F)c2)CC1` (centres unmarked) [Example 26, 2-(4-Amino-3,5-difluorophenyl)-N-((2-(4-methylpiperidin-1-yl)-6-(trifluoromethyl)pyridin-3-yl)methyl)propanamide] were 9.6 nM, 3.4 nM and “ne”.
Regarding `CC1CCN(c2nc(C(F)(F)F)ccc2CNC(=O)C(C)c2cc(O)c([N+](=O)[O-])c(F)c2)CC1` (centres unmarked) [Example 27, 2-(3-Fluoro-5-hydroxy-4-nitrophenyl)-N-((2-(4-methylpiperidin-1-yl)-6-(trifluoromethyl)pyridin-3-yl)methyl)propanamide], the Ki on vanilloid receptor (VR1) is 7.9 nM; in assay [1], 7.7 nM. Besides, the inhibition at 1 µM at VR1/TRPV1 receptor (@ 1 μM, read-out: inhibition (in percent) following pH-stimulus (Human)) was determined as 7%. The inhibition at 5 µM on VR1/TRPV1 receptor (@ 5 μM, read-out: inhibition (in percent) following pH-stimulus (Human)) came out at 35%. In addition, on VR1/TRPV1 receptor (@ 10 μM, read-out: inhibition (in percent) following pH-stimulus (Human)), the inhibition at 10 µM was 49%.

Source of the values: patent publication US8791268B2, “Vanilloid receptor ligands, pharmaceutical compositions containing them, process for making them, and use thereof for treating pain and other conditions” (Gruenenthal GmbH, priority 2007, dated 2014).
